According to ChEMBL document CHEMBL6083265, “Design, synthesis and biological evaluation of 4,6-diarylquinoxaline-based KDM4D inhibitors” (Bioorg Med Chem, 2024):
Active and inactive are the calls of the source. No cut-off for these calls is given here.

Legend:
[1] = target: T1, Lysine-specific demethylase 4D (Homo sapiens, UniProt Q6B0I6); test: Inhibition of KDM4D (unknown origin) incubated for 60 mins by microplate reader analysis
T1 sequence (Q6B0I6 whole entry): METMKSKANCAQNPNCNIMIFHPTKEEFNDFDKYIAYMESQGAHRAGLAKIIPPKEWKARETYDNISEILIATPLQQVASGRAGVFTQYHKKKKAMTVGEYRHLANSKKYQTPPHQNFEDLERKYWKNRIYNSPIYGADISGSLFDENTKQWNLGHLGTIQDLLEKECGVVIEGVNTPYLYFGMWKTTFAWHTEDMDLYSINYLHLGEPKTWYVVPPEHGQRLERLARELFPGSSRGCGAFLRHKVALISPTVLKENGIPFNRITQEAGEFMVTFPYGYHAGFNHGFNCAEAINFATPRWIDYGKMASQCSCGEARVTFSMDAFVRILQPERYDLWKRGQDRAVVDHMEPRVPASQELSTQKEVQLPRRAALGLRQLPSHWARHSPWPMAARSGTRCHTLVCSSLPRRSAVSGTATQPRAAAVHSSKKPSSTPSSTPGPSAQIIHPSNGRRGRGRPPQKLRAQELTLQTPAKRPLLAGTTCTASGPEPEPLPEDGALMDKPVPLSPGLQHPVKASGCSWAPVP

[2] = system: Huh-7; test: cells; settings: Homo sapiens, Huh-7, 48 h, read-out: INH
Description: Anticancer activity against human Huh-7 cells assessed as inhibition of cell viability at 8 uM incubated for 48 hrs by CCK-8 assay (Rvb = 0 +/- 0.88 %)

[3] = system: Huh-7; test: Downregulation of c-Myc expression in human Huh-7 cells by Western blot analysis; format: functional, cell-based
[4] = system: Huh-7; test: Inhibition of colony formation in human Huh-7 cells at 2 uM incubated for 72 hrs followed by compound washout and measured after 10 days by crystal violet staining based assay; format: functional, cell-based
[5] = system: Huh-7; test: Downregulation of CyclinD1 expression in human Huh-7 cells by Western blot analysis; format: functional, cell-based
[6] = system: Huh-7; test: Induction of cell cycle arrest in human Huh-7 cells assessed as decrease in accumulation of cells at G2/M phase at 2 uM by flow cytometry analysis; format: functional, cell-based
[7] = system: Huh-7; settings: Homo sapiens, Huh-7, 48 h
[8] = system: Huh-7; test: Induction of cell cycle arrest in human Huh-7 cells assessed as decrease in accumulation of cells at S phase at 2 uM by flow cytometry analysis; format: functional, cell-based
[9] = system: Huh-7; test: Inhibition of cell migration in human Huh-7 cells at 2 uM measured for 24 hrs by wound healing assay; format: functional, cell-based
[10] = system: Huh-7; test: Induction of cell cycle arrest in human Huh-7 cells assessed as increase in accumulation of cells at G1 phase at 2 uM by flow cytometry analysis; format: functional, cell-based

Row | Compound | IC50 [1] | inhibition at 8 µM [2] | other results
1 | S=C(NCc1ccncc1)Nc1ccc2nc(-c3ccccn3)c(-c3ccccn3)nc2c1 | > 50 µM | 39.8% | –
2 | COc1ccc(CNC(=S)Nc2ccc3nc(-c4ccco4)c(-c4ccco4)nc3c2)cc1 | 3.12 µM | 32.9% | –
3 | O=[N+]([O-])c1ccc(CNC(=S)Nc2ccc3nc(-c4ccco4)c(-c4ccco4)nc3c2)cc1 | 3.66 µM | 19.4% | –
4 | Fc1ccc(CNC(=S)Nc2ccc3nc(-c4ccco4)c(-c4ccco4)nc3c2)cc1 | 3.23 µM | 33% | –
5 | S=C(Nc1ccc2nc(-c3ccco3)c(-c3ccco3)nc2c1)Nc1ccccn1 | 2.46 µM | 16% | –
6 | Fc1ccc(CNC(=S)Nc2ccc3nc(-c4ccc(Br)s4)c(-c4ccc(Br)s4)nc3c2)cc1 | > 50 µM | 28.5% | –
7 | Fc1ccc(CNC(=S)Nc2ccc3nc(-c4cccs4)c(-c4cccs4)nc3c2)cc1 | > 50 µM | 41.8% | –
8 | S=C(NCc1ccccn1)Nc1ccc2nc(-c3ccc(Br)o3)c(-c3ccc(Br)o3)nc2c1 | 13 µM | 38.1% | –
9 | Cc1ccc(-c2nc3ccc(NC(=S)N4CCCCCC4)cc3nc2-c2ccc(C)o2)o1 | 0.62 µM | 55.5% | Activity [3]: Active; inhibition [4]: Active; Activity [5]: Active; Activity [6]: Active; IC50 [7]: 5.23 µM; Activity [8]: Active; inhibition [9]: Active; Activity [10]: Active
10 | S=C(Nc1ccc2nc(-c3ccc(Br)s3)c(-c3ccc(Br)s3)nc2c1)N1CCCCCC1 | > 50 µM | 41.5% | –
11 | O=C(Nc1ccccc1)Nc1ccc2nc(-c3ccco3)c(-c3ccco3)nc2c1 | 3.7 µM | 24.2% | –
12 | Fc1ccc(CNC(=S)Nc2ccc3nc(-c4ccccn4)c(-c4ccccn4)nc3c2)cc1 | > 50 µM | 37.8% | –
13 | COC(=O)CCCNC(=S)Nc1ccc2nc(-c3ccco3)c(-c3ccco3)nc2c1 | 2.41 µM | 20.2% | –
14 | S=C(NCc1ccccn1)Nc1ccc2nc(-c3ccccn3)c(-c3ccccn3)nc2c1 | > 50 µM | 30.3% | –
15 | O=C(Nc1ccccc1)C(=S)Nc1ccc2nc(-c3ccco3)c(-c3ccco3)nc2c1 | 7.16 µM | 19.7% | –

The next lines start with results.

Row | IC50 [1] | Compound | inhibition at 8 µM [2] | other results
16 | 5.98 µM | S=C(Nc1ccc2nc(-c3ccc(Br)o3)c(-c3ccc(Br)o3)nc2c1)N1CCCCCC1 | 25.8% | –
17 | 4.81 µM | S=C(Nc1ccccc1)Nc1ccc2nc(-c3ccco3)c(-c3ccco3)nc2c1 | 25.6% | –
18 | > 50 µM | S=C(Nc1ccc2nc(-c3ccccn3)c(-c3ccccn3)nc2c1)N1CCCCCC1 | 39.1% | –
19 | 3.97 µM | O=C1CCCN(C(=S)Nc2ccc3nc(-c4ccco4)c(-c4ccco4)nc3c2)CC1 | 29.5% | –
20 | 2.95 µM | O=C(Nc1ccc2nc(-c3ccco3)c(-c3ccco3)nc2c1)N1CCCCCC1 | 32.8% | –
21 | 2.63 µM | CCCCNC(=S)Nc1ccc2nc(-c3ccco3)c(-c3ccco3)nc2c1 | 30.7% | –
22 | 3.8 µM | S=C(Nc1ccc2nc(-c3ccco3)c(-c3ccco3)nc2c1)N1CCOCC1 | 30% | –
23 | 25.6 µM | S=C(Nc1ccc2nc(-c3ccco3)c(-c3ccco3)nc2c1)c1ccccc1 | 33.8% | –
24 | 2.31 µM | S=C(Nc1ccc2nc(-c3ccco3)c(-c3ccco3)nc2c1)N1CCCCCC1 | 33.3% | –
